Series [1] is described as follows: physchem. The note with it: n-octanol/water.
Series [2] is described as follows: Odor threshold of perfuming compounds in air.
The nature of series [3]: Volatility of perfuming compounds in air. The format is physicochemical.
A short description of series [4]: Log P (n-octanol/water) of perfuming compounds.
Where [5] appears, read: Table 5, perfuming compounds having a green note.

In the case of `COc1ccc(CC(C)C=O)cc1` (racemic) [(+−)-3-(4-methoxyphenyl)-2-methylpropanal], in series [1], the lipophilicity (logP) amounted to 2.8. Further, the “Odor Threshold” value in series [2] (Table 4, watery note) was found to be 9.79E−03 μg/l air. Further, the Volatility in series [3] (Table 4, watery note) was 18.99 μg/l air; in series [3] (setting [5]) it was 18.99 μg/l air. Besides, the “Log P (n-octanol/water)” value in series [4] (setting [5]) is 2.80.
In series [1], `CCCCCCCCC=O` [nonanal] came in with a logP of 3.42. Also, the “Odor Threshold” value in series [2] (Table 7, citrus note) came to 8.14E−03 μg/l air. For the same molecule, the Volatility in series [3] (setting [5]) stood at 2777.63 μg/l air; in series [3] (Table 7, citrus note), 2777.63 μg/l air. Besides, the “Log P (n-octanol/water)” value in series [4] (Table 7, citrus note) stood at 3.42.
The molecule `CC1=CC2CC(C=O)C1CC2C(C)C` (stereo not drawn) [8-ISOPROPYL-6-METHYL-BICYCLO[2.2.2]OCT-5-ENE-2-CARBALDEHYDE] showed a logP in series [1] of 3.81. Moreover, the “Odor Threshold” value in series [2] (Table 4, watery note) came out at 7.11E−05 μg/l air. The Volatility in series [3] (Table 4, watery note) is on record as 131.02 μg/l air; in series [3] (setting [5]), 131.02 μg/l air. The “Log P (n-octanol/water)” value in series [4] (setting [5]) is recorded as 3.81.

The record behind these values is patent US11427783B2, “Perfuming compositions” (Firmenich SA, priority 2016, dated 2022).
